Experimental data from ChEMBL document CHEMBL5370660, “Design of a Supersoft Topical JAK Inhibitor, Which Is Effective in Human Skin but Rapidly Deactivated in Blood” (J Med Chem, 2023).

Columns and labels:
[1] = biological target: T1, JAK3/JAK1 (Homo sapiens, UniProt P23458+P52333); assay: Inhibition of JAK1/3-mediated STAT5 phosphorylation in human M07E cells preincubated for 30 mins followed by IL-15 stimulation measured after 15 mins by flow cytometry; assay type: cell-based
[2] = Stability of compound under temperature stress assessed as compound degradation at 50 degreeC measured after 7 days using crystalline form of sample; assay type: physicochemical; settings: time 7 day; read-out: Drug degradation
[3] = biological target: JAK2/JAK1 (Homo sapiens, UniProt O60674+P23458); assay: Inhibition of JAK1/2-mediated STAT1 phosphorylation in human M07E cells preincubated for 30 mins followed by IFN-alpha stimulation measured after 15 mins by flow cytometry; assay type: cell-based
Sequence of JAK2/JAK1 (P23458 whole entry): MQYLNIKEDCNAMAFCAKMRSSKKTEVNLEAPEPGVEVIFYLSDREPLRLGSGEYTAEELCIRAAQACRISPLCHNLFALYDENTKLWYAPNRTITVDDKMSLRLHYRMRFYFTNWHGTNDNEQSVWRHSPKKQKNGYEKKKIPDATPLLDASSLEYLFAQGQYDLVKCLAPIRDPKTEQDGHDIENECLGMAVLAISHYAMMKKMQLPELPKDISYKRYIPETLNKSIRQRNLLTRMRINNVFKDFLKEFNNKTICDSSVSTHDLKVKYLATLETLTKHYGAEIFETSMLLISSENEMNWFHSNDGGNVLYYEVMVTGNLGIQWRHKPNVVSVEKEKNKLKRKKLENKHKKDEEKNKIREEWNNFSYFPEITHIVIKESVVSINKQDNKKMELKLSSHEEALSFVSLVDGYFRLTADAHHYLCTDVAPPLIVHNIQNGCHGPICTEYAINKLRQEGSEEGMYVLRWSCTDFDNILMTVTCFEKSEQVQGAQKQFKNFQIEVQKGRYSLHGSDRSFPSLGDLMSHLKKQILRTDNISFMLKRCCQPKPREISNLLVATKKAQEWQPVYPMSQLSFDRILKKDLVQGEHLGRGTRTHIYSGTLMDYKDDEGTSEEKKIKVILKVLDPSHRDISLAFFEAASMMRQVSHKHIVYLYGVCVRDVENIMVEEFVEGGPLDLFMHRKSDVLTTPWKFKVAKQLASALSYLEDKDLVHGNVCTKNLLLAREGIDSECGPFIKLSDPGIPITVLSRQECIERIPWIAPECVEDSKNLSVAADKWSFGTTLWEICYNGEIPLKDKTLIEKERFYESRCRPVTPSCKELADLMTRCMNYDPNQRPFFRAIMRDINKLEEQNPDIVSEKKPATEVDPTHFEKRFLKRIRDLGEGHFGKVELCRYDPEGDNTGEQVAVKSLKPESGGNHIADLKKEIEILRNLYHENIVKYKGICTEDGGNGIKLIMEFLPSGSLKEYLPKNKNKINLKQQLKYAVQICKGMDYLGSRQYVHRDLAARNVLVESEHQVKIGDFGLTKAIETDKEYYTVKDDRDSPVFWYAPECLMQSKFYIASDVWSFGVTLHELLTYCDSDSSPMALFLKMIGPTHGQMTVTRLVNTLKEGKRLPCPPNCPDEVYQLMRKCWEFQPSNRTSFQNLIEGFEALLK
Sequence of JAK2/JAK1 (O60674 whole entry): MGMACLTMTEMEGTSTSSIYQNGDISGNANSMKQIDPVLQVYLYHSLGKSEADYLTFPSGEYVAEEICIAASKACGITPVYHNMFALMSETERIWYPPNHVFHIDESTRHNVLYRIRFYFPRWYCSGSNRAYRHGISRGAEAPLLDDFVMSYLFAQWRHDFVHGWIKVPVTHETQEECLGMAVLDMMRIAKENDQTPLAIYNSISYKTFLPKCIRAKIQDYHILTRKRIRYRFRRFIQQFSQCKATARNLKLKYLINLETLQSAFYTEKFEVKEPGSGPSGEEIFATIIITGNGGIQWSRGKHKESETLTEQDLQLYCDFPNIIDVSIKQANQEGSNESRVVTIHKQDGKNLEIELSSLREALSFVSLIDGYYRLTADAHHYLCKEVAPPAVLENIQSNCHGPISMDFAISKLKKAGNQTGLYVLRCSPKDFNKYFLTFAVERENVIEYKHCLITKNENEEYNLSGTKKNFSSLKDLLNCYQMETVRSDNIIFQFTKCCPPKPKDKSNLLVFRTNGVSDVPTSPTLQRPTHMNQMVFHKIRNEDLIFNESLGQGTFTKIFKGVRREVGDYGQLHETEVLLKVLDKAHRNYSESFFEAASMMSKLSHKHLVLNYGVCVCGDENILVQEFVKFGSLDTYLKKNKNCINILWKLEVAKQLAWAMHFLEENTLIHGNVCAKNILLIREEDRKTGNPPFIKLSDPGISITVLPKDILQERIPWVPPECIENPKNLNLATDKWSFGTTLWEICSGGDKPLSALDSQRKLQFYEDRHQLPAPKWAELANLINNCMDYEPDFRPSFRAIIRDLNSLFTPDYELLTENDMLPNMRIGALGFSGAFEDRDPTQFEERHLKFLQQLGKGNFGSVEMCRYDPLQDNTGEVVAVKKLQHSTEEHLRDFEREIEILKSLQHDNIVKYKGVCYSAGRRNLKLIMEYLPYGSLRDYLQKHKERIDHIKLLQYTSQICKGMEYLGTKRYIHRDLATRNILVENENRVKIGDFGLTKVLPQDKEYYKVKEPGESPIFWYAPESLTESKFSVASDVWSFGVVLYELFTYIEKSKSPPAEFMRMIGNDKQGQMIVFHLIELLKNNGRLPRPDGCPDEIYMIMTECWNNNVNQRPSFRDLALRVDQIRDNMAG

[4] = Permeability of compound; assay type: ADME; settings: not told; read-out: permeability
[5] = biological target: T2, Eukaryotic translation initiation factor 2-alpha kinase 3 (Homo sapiens, UniProt Q9NZJ5); assay: Inhibition of EIF2AK3 (unknown origin)
T2 sequence (Q9NZJ5 whole entry): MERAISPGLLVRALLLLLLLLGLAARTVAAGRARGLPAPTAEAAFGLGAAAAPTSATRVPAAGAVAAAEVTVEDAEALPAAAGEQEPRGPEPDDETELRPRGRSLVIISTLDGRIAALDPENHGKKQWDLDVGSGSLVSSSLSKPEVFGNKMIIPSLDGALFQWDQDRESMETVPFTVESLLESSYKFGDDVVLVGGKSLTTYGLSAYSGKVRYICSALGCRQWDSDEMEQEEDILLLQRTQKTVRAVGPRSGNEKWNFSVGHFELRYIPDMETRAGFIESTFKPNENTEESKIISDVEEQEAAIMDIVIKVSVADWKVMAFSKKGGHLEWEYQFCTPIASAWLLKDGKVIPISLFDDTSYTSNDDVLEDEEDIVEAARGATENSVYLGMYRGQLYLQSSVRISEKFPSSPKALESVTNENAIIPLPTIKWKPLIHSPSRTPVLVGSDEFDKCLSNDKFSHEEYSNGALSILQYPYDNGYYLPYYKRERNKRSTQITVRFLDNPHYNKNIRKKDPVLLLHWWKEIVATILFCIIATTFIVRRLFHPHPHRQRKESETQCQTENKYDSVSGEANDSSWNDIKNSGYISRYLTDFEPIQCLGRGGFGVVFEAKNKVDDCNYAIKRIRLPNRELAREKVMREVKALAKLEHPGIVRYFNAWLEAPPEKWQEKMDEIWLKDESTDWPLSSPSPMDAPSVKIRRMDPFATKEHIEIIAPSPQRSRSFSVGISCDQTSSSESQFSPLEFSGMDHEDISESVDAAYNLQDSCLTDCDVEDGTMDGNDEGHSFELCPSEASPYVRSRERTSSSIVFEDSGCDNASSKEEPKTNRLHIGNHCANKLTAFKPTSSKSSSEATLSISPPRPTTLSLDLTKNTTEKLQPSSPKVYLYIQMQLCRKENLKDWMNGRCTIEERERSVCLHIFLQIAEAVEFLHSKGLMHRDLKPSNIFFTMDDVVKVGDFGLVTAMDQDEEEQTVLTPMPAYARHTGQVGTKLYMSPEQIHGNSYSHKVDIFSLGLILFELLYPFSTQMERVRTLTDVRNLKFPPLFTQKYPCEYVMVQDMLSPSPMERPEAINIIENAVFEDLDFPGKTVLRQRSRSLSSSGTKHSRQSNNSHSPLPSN

[6] = Stability of compound in fresh human skin explant using Franz diffusion cell model assessed as compound concentration in dermis at 3 % administered topically preincubated overnight followed by fresh media replacement in receiver fluid without compound and subsequently stimulated with IL-4/IL-13 measured after 40 hrs by LC-MS/MS analysis; assay type: ADME, tissue-based, Skin of body; settings: topical or ocular, read-out: Ct
[7] = Stability in dermis human abdominal skin upto 2.5 % administered topically as ointment treated for 24 hrs followed by removal of ointment and stratum corneum and subsequently stimulated with IL-4/IL-13 measured after 3 hrs; assay type: ADME, tissue-based, Abdomen skin; settings: topical_or_ocular, 27 h, route top
[8] = biological target: T1, JAK3/JAK1; assay: Inhibition of JAK1/3-mediated STAT5 phosphorylation in human whole blood incubated for 30 mins followed by IL-2 addition measured after 15 mins by flow cytometry; assay type: tissue-based
[9] = Metabolic stability in human skin S9 fraction measured upto 120 mins by LC-MS analysis; assay type: ADME, subcellular
[10] = Thermodynamic solubility of the compound at pH 6.8 using crystalline form of sample; assay type: physicochemical
[11] = Saturation solubility of compound in PEG400/transcutol/benzyl alcohol/water mixture using crystalline form of sample; assay type: physicochemical
[12] = biological target: T3, Tyrosine-protein kinase JAK3 (Homo sapiens, UniProt P52333); assay: Inhibition of GST-fused JAK3 (811 to 1124 residues)(unknown origin) using Carboxyfluorescein-Ahx-GGEEEEYFELVKKKK peptide as substrate incubated for 30 mins in presence of ATP by caliper microfluidic mobility shift assay
T3 sequence (P52333 whole entry): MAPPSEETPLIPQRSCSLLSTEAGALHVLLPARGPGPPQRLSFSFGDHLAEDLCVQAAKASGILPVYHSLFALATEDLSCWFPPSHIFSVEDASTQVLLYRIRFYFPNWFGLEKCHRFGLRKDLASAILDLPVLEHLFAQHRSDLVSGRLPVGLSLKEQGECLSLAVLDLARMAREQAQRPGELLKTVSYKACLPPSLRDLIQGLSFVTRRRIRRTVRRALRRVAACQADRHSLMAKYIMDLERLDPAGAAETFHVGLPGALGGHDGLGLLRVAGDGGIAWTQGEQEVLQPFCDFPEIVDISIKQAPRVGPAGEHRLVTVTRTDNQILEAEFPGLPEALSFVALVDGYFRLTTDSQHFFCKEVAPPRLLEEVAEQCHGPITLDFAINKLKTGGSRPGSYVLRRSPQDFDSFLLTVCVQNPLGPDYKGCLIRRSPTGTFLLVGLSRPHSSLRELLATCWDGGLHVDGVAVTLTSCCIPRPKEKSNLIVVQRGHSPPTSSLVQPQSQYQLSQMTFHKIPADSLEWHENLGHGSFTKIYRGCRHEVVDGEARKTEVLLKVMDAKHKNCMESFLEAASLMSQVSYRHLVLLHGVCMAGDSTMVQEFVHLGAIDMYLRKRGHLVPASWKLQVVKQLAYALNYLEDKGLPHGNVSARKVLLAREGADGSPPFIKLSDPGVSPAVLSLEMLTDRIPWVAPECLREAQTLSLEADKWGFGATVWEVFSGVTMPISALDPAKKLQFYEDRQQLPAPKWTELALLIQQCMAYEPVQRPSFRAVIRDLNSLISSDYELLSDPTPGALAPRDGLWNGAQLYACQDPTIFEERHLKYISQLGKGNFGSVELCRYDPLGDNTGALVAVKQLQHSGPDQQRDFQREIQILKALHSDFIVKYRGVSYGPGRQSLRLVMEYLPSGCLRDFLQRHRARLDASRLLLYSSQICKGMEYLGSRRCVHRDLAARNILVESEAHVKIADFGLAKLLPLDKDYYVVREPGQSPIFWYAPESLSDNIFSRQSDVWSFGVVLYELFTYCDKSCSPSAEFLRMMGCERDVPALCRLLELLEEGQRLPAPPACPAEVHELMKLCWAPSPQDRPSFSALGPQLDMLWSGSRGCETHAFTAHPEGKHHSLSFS

T1 sequence (P23458 whole entry, one chain of several): as the sequence (P23458 whole entry) above

COC[C@@H](C)OC(=O)Cc1ccc(Nc2cc(Nc3ccccc3OC)c(C(N)=O)cn2)nc1
IC50 [1]: 0.131 µM | degraded at 168 h [2]: 0.4% | IC50 [3]: 0.045 µM | Papp [4]: 18 ×10⁻⁶ cm/s | IC50 [5]: < 0.1 µM | concentration at 40 h, 3 % [6]: 59 µM | Stability [7]: Stable | IC50 [8]: 14.8 µM | half-life [9]: 42 min | Therm_solubility [10]: 0.007 µg/mL | solubility thermodynamic [11]: > 18000 µg/mL | IC50 [12]: 0.004 µM
